# According to patent US8871794B2, “Small-molecule agonists for type-2 orexin receptor” (Board of Regents, The University of Texas System, priority 2008, dated 2014):
# Where two headings read alike, the source gives them in different places.
# Legend:
# [1] = IP pharmacokinetics in C57BL/6 mice (plasma and brain); format: in vivo, mouse; settings: for AUC / Clearance / Kp / Cmax / half-life: IP 20 mg/kg; for Kp: brain/plasma, ip, 20 mg/kg; for half-life: read-out: Terminal half life
# Experimental: Pharmacokinetics: Methods: Chembridge Compound 6037874 (“Yan7874”) was provided as a powdered stock and dissolved in DMSO at 50 mg/ml. The compound was formulated as 5% DMSO/5% Cremaphor EL/90% 5% dextrose, pH 7.2 such that compound could be administered to mice at 10-20 mg/kg in a volume of 0.2 ml by IV bolus.
# A second experiment was conducted using 24 C57BL/6 mice (NCI, male, 6 weeks of age). These mice were weighed and injected with 20 mg/kg of compound formulated as described above IP in 0.2 ml. […] The mice were sacrificed as above in groups of three by inhalation overdose of CO2 and blood and brain obtained and processed as above.
# An analytical method was developed to detect Yan7874 using LC/MS/MS.
# A standard curve was developed in plasma in the following manner. 100 μl of plasma is spiked with varying concentrations of Yan7874. The plasma is allowed to sit 10′ at room temperature after vortexing. 200 μl of acetonitrile is added to precipitate plasma proteins and release bound drug. After vortexing, the sample is incubated 10′ at room temperature. 700 μl of PBS is added and the sample is centrifuged at 14,000 rpm in a standard microcentrifuge for 5′. 900 μl of supernatant is added to 1 ml of PBS. The entire sample is passed over a Waters OASIS HLB solid phased extraction column already primed by addition of 2 ml methanol and 2 ml H2O. The column is washed once with 2 ml of 5% methanol/2% NH4OH in H2O and once with 2 ml of 5% methanol/2% acetic acid in H2O and compound is eluted by addition of 2 ml of methanol containing 2% NH4OH. 500 μl of this is added to 500 μl of H2O containing 0.2% formic acid (final formic acid 0.1%). Samples are prepared in the same manner without addition of spiked compound. Brain tissue is prepared by homogenizing in 3× volume of PBS (weight in grams×3=volume in ml to add). 100 μl of blank brain lysate is used for preparation of standard curve samples while 100 μl of sample brain lysate is used for preparation of samples. To calculate brain levels, the concentration in ng/ml calculated from the standard curve is multiplied by the total volume of lysate (a value in ml estimated from the 3× volume of PBS added +1× volume to account for brain tissue itself) and then divided by the weight of the brain in grams. A value of 3× above the signal obtained from blank plasma or brain lysate is designated the limit of detection (LOD). The LOD for plasma is 2640 and for brain 459. The limit of quantitation (LOQ) is the lowest concentration at which back calculation yields a concentration within 20% of theoretical. The LOQ for both plasma and brain is 5 ng/ml. In general back calculation of points on both curves yielded values within 20% of theoretical over 4 orders of magnitude (10,000 to 5 ng/ml) for both sample types.
# [2] = as above; format: in vivo, mouse; settings: 30 mg/kg IP, one of the two mice
smiles,measurement,setting,value
Cc1ccc(Cn2c(=N)n(CC(O)c3ccc(Cl)c(Cl)c3)c3ccccc32)cc1 (stereo not drawn) [Compound 130699],acute reaction after injection,[1]; 20 mg/kg IP,no acute reactions were noted
same,AUC,[1]; brain,"133,194 min*ng/g"
same,Clearance,[1]; brain,2.9 g/min
same,Clearance,[1]; plasma,2.7 mL/min
same,Kp,"[1]; male, C57BL/6, mouse, read-out: Blood Brain Penetration Ratio: AUC brain/AUC plasma",0.9
same,Kp,"[1]; male, C57BL/6, mouse, read-out: Blood Brain Penetration Ratio: Cmax brain/Cmax plasma",0.3
same,Cmax,"[1]; male, C57BL/6, mouse, brain",337 ng/g
same,half-life,"[1]; male, C57BL/6, mouse, brain",3.39 h
same,Cmax,"[1]; male, C57BL/6, mouse, plasma",1080 ng/mL
same,AUC,"[1]; male, C57BL/6, mouse, plasma, read-out: AUC (converted)",2400 ng·h/mL
same,half-life,"[1]; male, C57BL/6, mouse, plasma",2.75 h
same,acute reaction after injection,[2],abdominal guarding and decreased activity for up to one hour
